# Reference: patent publication US10596259B2, “Tumor radiosensitization with monomethyl auristatin E (MMAE) and derivatives thereof” (The Regents of the University of California, priority 2015, dated 2020)
# Entries after “also recorded” stand apart in the source; their conditions may differ. Non-standard residues stand in square brackets, D forms with d. Residues, ends and D or L forms follow the SMILES beside them. *: point of attachment. Dolaproine = CO[C@@H]([C@@H]1CCCN1)[C@@H](C)C(=O)O; Dil = CC[C@H](C)[C@H](NC)[C@@H](CC(=O)O)OC; X1 = C[C@@H](N*)[C@@H](O)c1ccccc1; NMeV = CN[C@H](C(=O)O)C(C)C
# Tests used:
# [1] = system: 779E cells; test: Neutral comet assay (DNA double strand breaks); type: cell-based, Human; settings: MMAE overnight in combination with IR
# Experimental: (§1) Cells were treated for 24 hours with indicated doses of MMAE and then irradiated with 6 Gy. Cells were harvested 15 minutes post IR, suspended in agarose gel and lysed per assay directions (Trevigen). Samples underwent electrophoresis under neutral conditions and were then stained with Sybr Green. Comet tails were counted in multiple fields (>60 cells per sample) and analyzed using CometScore (TriTek Corp).
# (§2) Cells were treated for indicated length and doses of MMAE followed by 6 Gy. Cells were harvested 15 minutes after IR and underwent neutral electrophoresis (Trevigen). Comet tails were counted in multiple fields (>60 cells per sample) and analyzed using CometScore (TriTek Corp).
# [2] = system: HCT-116 cells; test: Neutral comet assay (DNA double strand breaks); type: cell-based, Human
# Experimental: as §1, §2
# [3] = system: HCT-116 cells; test: Apoptosis (sub-G1 population) after MMAE and IR; type: cell-based, Human
# Experimental: Cells were treated with MMAE for 24 hours and then fixed in methanol. Cells were treated with RNAse, stained with propidium iodide (PI), and analyzed by FACS using FlowJo software.
# (§3) Because MMAE reduced clonogenic cell survival following IR, we tested whether MMAE increased apoptosis in irradiated cells. HCT-116 cells were treated with MMAE for 24 hours followed by IR. Cells were collected 24 hours after IR and the sub-G1 population (apoptotic) was measured. […] Because MMAE increased DNA double-strand breaks in irradiated cells (FIG. 34), we then evaluated whether MMAE altered the DNA damage response in irradiated cells. HCT-116 cells were treated with MMAE for 24 hours followed by 6 Gy. Cells were collected 1 hour after IR, and activation of the DNA damage checkpoint proteins CHK1 (pS345) and CHK2 (pT68) was ascertained (FIG. 36B). […] Upon DNA damage, histone H2A becomes phosphorylated at S139, γH2AX.
# [4] = system: CHK1 (pS345); test: Immunoblot for DNA damage checkpoint activation in HCT-116 cells; type: cell-based, Human; settings: MMAE 24 hours, then 6 Gy
# Experimental: (§4) MMAE- and IR-treated cells were harvested and lysed in RIPA buffer with protease and phosphatase inhibitors (Roche). Thirty micrograms of lysate underwent electrophoresis using 4% to 12% Bis-Tris gels (Life Technologies), transferred to polyvinylidene difluoride (PVDF) membranes, and incubated with indicated primary antibodies (Cell Signaling Technology). Blots were developed by ECL (Pierce).
# as §3
# [5] = system: cyclin B; test: Immunoblot for cell phase-specific cyclins in HCT-116 cells; type: cell-based, Human; settings: 5 nmol/L MMAE, 24-hour exposure
# Experimental: as §4
# Because MMAE blocks cells in the radiosensitive G2-M phase of the cell cycle, we tested whether MMAE specifically interacted with IR. We hypothesized that while a short exposure to MMAE would not influence radiosensitivity, prolonged MMAE exposure with cells accumulating in G2-M would increase sensitivity to IR. DNA double-stand breaks are a hallmark of IR damage and can be measured by neutral comet assay. HCT-116 cells were treated with 5 nmol/L MMAE for varying lengths of time (0, 2, 4, or 24 hours) and then irradiated (FIG. 34A).
# [6] = system: PANC-1 tumor xenografts; test: In vivo tumor xenograft growth with or without IR; set-up: species or system mice
# Experimental: HCT-116 or PANC-1 tumor xenografts were established and tumor growth was measured with digital calipers. Tumor volume was calculated using the formula as ½*Length*Width^2. Mice were randomized into groups once the average tumor volume reached 250 mm^3. Mice were assigned to groups: Vehicle, ACPP-cRGD-MMAE, fractionated IR or the combination. ACPP-cRGD-MMAE lyophilized powder was suspended in sterile deionized water just prior to tail vein injection. MMAE doses and IR fractionation are as indicated in the Results.
# HCT-116 or PANC-1 tumor growth was measured with digital calipers. Tumor volume was calculated using the formula as ½×length×width^2. Mice were randomized into groups as indicated in Results once the average tumor volume reached >200 mm^3. Free MMAE was injected on an equimolar basis to ACPP-cRGD-MMAE.
smiles,measurement,setting,value
"CC[C@H](C)[C@@H]([C@@H](CC(=O)N1CCC[C@H]1[C@H](OC)[C@@H](C)C(=O)N[C@H](C)[C@@H](O)c1ccccc1)OC)N(C)C(=O)[C@@H](NC(=O)[C@@H](NC)C(C)C)C(C)C [MMAE, monomethyl auristatin E] (H-[NMeV]V[Dil][Dolaproine]-X1)",comet tail length,[1],significantly increased comet tail length
same,comet tail length vs IR alone,"[2]; 1 nM MMAE 24 hours, then 6 Gy",did not significantly increase; also recorded: did not increase DNA damage over IR alone
same,comet tail length vs IR alone,"[2]; 5 nM MMAE 24 hours, then 6 Gy",significant increase; also recorded: significantly increased comet tail length
same,comet tail length vs IR alone,"[2]; 5 nmol/L MMAE for 2 or 4 hours, then IR",did not increase comet tail length
same,comet tail length vs vehicle,"[2]; non-irradiated, 1 or 5 nM MMAE overnight",no significant effect
same,"apoptosis, IR combined with MMAE vs MMAE","[3]; MMAE 24 hours then IR, collected 24 hours after IR",no further increase in apoptosis
same,apoptosis vs vehicle,"[3]; MMAE alone, 24 hours",significant increase in apoptosis
same,CHK1 activation in irradiated cells,[4],enhanced CHK1 activation
same,accumulation of cyclins,[5],specific accumulation of the G2-M cyclin B
same,"V(end)/V(0) ≤ 1, PANC-1, expt 1","[6]; day 30, + IR",0%
same,"V(end)/V(0) ≤ 1, PANC-1, expt 1","[6]; day 30, no IR",0%
same,tumor xenografts smaller than starting tumor volume,"[6]; expt 1, day 20, no IR",None
same,tumor xenografts less than or equal to starting tumor volume,"[6]; expt 1, day 20, with IR",4/10
same,tumor regression vs IR or free MMAE alone,"[6]; expt 1: 6 nmoles days 0 and 1 plus IR 3 Gy days 1 and 2, listed as free MMAE",increased tumor xenograft regression; also recorded: profound tumor xenograft regression
same,average tumor volume relative to untreated controls,"[6]; expt 1: iv days 0 and 1, 6 nmoles/day, no IR, day 30",75%
same,tumor growth vs untreated control,"[6]; expt 1: iv days 0 and 1, 6 nmoles/day, no IR, listed as free MMAE","modest, but statistically significant growth delay; also recorded: small but statistically significant growth delay"
